Data reported in ChEMBL document CHEMBL5365487, “Development of 18F-Labeled PET Tracer Candidates for Imaging of the Abelson Non-receptor Tyrosine Kinase in Parkinson's Disease” (J Med Chem, 2023).

Columns and labels:
[1] = In vivo stability in iv dosed Hsd:ICR (CD-1) mouse brain assessed as stability measured after 5 mins by radio-HPLC analysis; format: ADME, organism-based; conditions: read-out: Stability
[2] = Ex vivo biodistribution in Hsd:ICR (CD-1) mouse assessed as thigh bone uptake at 12.5 to 26.9 MBq, iv measured for 5 mins by gamma counter analysis; format: ADME, organism-based; conditions: dose 12.5-26.9 MBq
[3] = Biodistribution in Hsd:ICR (CD-1) mouse assessed as brain uptake at 12.5 to 26.9 MBq, iv in presence of imidazole [1,2-alpha]pyridine measured at early time points by PET imaging analysis; format: ADME, organism-based; conditions: in vivo, dose 12.5-26.9 MBq
[4] = In vivo stability in iv dosed Hsd:ICR (CD-1) mouse plasma assessed as stability measured after 5 mins by radio-HPLC analysis; format: ADME, organism-based; conditions: for remaining at 5 min: Hsd:ICR (CD-1), plasma, read-out: Stability
[5] = In vivo stability in iv dosed Hsd:ICR (CD-1) mouse plasma assessed as stability measured after 90 mins by radio-HPLC analysis; format: ADME, organism-based; conditions: for Stability: in vivo, iv
[6] = In vivo stability in iv dosed Hsd:ICR (CD-1) mouse plasma assessed as stability measured after 45 mins by radio-HPLC analysis; format: ADME, organism-based; conditions: for remaining at 0.75 h: Hsd:ICR (CD-1), plasma, read-out: Stability
[7] = Ex vivo biodistribution in Hsd:ICR (CD-1) mouse assessed as thigh bone uptake at 12.5 to 26.9 MBq, iv measured after 90 mins by gamma counter analysis; format: ADME, organism-based; conditions: dose 12.5-26.9 MBq
[8] = Ex vivo biodistribution in Hsd:ICR (CD-1) mouse assessed as brain uptake at 12.5 to 26.9 MBq, iv measured for 5 to 90 mins by gamma counter analysis; format: ADME, organism-based; conditions: dose lower 12.5 MBq, time lower 5 min, dose upper 26.9 MBq, time upper 90 min
[9] = Ex vivo biodistribution in Hsd:ICR (CD-1) mouse assessed as brain uptake at 12.5 to 26.9 MBq, iv measured for 5 mins by gamma counter analysis; format: ADME, organism-based; conditions: dose 12.5-26.9 MBq
[10] = Ex vivo biodistribution in Hsd:ICR (CD-1) mouse assessed as blood uptake at 12.5 to 26.9 MBq, iv measured after 90 mins by gamma counter analysis; format: ADME, organism-based; conditions: dose 12.5-26.9 MBq
[11] = In vivo stability in iv dosed Hsd:ICR (CD-1) mouse brain assessed as stability measured after 90 mins by radio-HPLC analysis; format: ADME, organism-based; conditions: read-out: Stability
[12] = Ex vivo biodistribution in Hsd:ICR (CD-1) mouse assessed as brain uptake at 12.5 to 26.9 MBq, iv measured for 5 to 90 mins in presence of imidazole [1,2-alpha]pyridine by gamma counter analysis; format: ADME, organism-based; conditions: dose lower 12.5 MBq, time lower 5 min, dose upper 26.9 MBq, time upper 90 min
[13] = Plasma protein binding in CD-1 ISG mouse plasma measured after 4 hrs by equilibrium dialysis based LC-MS/MS analysis; format: ADME, cell-free; conditions: read-out: PPB (converted)
[14] = AUC in C57BL6 mouse brain at 1 mg/kg, iv single administration measured upto 24 hrs by LC-MS/MS analysis; format: ADME, organism-based; set-up: time < 24 hrs, dose 1 mg/kg, route iv
[15] = Half life in C57BL6 mouse brain at 1 mg/kg, iv single administration measured upto 24 hrs by LC-MS/MS analysis; format: ADME, organism-based
[16] = AUC (0 to last) in C57BL6 mouse brain at 1 mg/kg, iv single administration measured upto 24 hrs by LC-MS/MS analysis; format: ADME, organism-based; set-up: time < 24 hrs, dose 1 mg/kg, route iv
[17] = Initial plasma concentration in C57BL6 mouse plasma at 1 mg/kg, iv single administration measured upto 24 hrs by LC-MS/MS analysis; format: ADME, organism-based
[18] = Ratio of total drug brain AUC to total plasma AUC in C57BL6 mouse brain at 1 mg/kg, iv single administration measured upto 24 hrs by LC-MS/MS analysis; format: ADME, organism-based
[19] = AUC in C57BL6 mouse brain assessed as free brain drug at 1 mg/kg, iv single administration measured upto 24 hrs by LC-MS/MS analysis; format: ADME, organism-based; set-up: time < 24 hrs, dose 1 mg/kg, route iv; conditions: in vivo
[20] = Metabolic stability in human liver microsomes assessed as stability measured after 30 mins by LC-MS/MS analysis; format: ADME, Microsome; conditions: read-out: Drug metabolism
[21] = target: Leucine-rich repeat serine/threonine-protein kinase 2 (Homo sapiens) (UniProt Q5S007); assay: Inhibition of LRRK2 (unknown origin) at 1 uM by ADP-Glo kinase assay relative to control
Leucine-rich repeat serine/threonine-protein kinase 2 (Homo sapiens), sequence (Q5S007 whole entry): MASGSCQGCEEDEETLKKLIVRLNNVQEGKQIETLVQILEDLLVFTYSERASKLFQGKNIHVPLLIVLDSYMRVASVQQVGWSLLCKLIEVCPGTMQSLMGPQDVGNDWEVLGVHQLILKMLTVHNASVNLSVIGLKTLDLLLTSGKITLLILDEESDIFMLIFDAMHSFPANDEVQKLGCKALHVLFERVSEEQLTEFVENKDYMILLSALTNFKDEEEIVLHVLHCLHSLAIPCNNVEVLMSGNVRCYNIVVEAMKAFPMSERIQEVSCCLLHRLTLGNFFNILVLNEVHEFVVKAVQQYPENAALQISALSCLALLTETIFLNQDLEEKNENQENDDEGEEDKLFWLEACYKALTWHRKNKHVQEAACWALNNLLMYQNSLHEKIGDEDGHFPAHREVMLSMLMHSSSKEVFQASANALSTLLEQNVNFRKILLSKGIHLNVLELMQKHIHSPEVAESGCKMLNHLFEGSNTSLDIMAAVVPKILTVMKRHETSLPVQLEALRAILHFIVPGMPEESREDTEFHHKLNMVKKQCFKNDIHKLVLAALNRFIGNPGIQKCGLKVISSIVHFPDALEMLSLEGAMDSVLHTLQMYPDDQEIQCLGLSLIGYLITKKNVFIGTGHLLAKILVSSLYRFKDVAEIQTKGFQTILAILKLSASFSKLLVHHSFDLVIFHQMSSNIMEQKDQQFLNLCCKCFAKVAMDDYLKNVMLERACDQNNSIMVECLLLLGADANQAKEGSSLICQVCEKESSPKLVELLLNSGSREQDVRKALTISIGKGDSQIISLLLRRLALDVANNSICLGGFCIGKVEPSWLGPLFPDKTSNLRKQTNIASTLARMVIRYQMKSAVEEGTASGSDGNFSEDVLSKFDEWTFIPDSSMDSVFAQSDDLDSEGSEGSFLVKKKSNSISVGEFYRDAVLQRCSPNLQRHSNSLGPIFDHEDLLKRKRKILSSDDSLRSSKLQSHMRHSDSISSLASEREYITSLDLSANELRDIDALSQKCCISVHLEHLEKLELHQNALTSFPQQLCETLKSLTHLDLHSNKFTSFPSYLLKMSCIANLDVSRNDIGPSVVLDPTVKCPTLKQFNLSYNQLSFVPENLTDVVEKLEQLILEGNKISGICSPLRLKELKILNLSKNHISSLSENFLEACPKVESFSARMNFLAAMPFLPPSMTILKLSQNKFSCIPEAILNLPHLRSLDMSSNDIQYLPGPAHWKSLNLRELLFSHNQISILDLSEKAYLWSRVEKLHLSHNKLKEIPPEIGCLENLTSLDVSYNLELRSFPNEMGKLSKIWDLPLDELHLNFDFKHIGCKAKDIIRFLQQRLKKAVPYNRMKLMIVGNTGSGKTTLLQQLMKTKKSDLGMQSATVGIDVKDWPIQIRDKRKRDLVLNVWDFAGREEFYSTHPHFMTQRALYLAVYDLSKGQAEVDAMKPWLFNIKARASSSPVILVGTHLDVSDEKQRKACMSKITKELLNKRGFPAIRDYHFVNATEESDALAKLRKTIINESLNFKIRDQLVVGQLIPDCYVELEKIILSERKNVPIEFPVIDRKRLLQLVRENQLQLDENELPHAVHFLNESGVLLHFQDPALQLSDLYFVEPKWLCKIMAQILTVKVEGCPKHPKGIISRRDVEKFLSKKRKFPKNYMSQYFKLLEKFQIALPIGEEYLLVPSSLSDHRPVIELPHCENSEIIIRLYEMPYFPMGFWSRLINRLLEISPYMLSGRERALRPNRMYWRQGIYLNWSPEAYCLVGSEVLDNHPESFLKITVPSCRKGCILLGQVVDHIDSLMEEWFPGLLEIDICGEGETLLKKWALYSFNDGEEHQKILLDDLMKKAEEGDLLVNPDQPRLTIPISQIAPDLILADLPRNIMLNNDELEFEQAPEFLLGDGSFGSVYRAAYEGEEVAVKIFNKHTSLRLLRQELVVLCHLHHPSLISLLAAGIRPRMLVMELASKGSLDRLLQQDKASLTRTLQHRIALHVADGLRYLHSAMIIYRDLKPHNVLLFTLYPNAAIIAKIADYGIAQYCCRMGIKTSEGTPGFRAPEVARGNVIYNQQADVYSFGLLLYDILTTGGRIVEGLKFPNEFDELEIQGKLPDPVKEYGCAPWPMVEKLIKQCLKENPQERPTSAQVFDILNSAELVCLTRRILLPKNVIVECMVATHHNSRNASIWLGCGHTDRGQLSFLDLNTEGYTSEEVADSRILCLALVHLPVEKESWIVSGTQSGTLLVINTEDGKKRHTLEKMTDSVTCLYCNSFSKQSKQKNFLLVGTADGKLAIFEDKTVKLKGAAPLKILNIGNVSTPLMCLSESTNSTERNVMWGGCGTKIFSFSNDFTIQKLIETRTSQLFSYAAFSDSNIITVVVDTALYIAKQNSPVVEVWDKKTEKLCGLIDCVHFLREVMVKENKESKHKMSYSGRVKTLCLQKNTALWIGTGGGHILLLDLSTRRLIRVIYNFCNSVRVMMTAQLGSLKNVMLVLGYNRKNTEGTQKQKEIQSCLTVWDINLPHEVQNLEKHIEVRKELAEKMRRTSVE

[22] = target: Receptor-interacting serine/threonine-protein kinase 2 (Homo sapiens) (UniProt O43353); assay: Inhibition of RIPK2 (unknown origin) at 1 uM by ADP-Glo kinase assay relative to control
Receptor-interacting serine/threonine-protein kinase 2 (Homo sapiens), sequence (O43353 whole entry): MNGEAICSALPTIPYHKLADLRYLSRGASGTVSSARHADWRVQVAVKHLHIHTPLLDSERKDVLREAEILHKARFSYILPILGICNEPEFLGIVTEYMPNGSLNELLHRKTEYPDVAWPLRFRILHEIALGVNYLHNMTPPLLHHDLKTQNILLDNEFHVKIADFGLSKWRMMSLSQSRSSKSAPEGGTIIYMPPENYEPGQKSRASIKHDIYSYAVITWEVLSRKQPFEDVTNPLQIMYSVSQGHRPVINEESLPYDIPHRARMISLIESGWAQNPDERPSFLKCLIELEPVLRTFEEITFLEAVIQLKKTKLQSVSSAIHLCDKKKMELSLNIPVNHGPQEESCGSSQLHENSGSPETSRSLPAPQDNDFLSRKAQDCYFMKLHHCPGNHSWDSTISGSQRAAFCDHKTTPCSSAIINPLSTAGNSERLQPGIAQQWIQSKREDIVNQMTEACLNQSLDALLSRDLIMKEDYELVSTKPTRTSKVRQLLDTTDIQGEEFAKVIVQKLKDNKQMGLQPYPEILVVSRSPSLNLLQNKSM

[23] = target: T1, Interleukin-1 receptor-associated kinase 3 (Homo sapiens) (UniProt Q9Y616); assay: Inhibition of IRAK3 (unknown origin) at 1 uM by ADP-Glo kinase assay relative to control
T1 sequence (whole entry): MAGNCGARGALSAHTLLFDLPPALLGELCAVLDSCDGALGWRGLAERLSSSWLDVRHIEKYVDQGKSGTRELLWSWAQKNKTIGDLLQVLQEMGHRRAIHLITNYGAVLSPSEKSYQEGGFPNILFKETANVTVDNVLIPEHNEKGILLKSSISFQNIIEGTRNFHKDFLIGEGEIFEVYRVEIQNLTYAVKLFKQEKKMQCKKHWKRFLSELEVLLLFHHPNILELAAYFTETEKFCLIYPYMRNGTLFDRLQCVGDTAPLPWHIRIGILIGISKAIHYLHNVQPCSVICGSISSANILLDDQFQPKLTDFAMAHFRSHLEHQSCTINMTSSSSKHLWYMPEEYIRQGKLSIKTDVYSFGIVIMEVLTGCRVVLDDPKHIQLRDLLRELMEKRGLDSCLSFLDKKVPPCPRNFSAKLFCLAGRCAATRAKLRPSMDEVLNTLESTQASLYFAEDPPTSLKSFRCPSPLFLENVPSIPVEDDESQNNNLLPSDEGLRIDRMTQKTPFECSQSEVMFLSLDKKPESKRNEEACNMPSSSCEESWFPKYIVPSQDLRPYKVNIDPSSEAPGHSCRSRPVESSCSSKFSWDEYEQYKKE

[24] = Initial plasma concentration in C57BL6 mouse plasma at 0.5 mg/kg, iv single administration measured upto 24 hrs by LC-MS/MS analysis; format: ADME, organism-based
[25] = Ratio of free drug brain AUC to free plasma AUC in C57BL6 mouse brain at 0.5 mg/kg, iv single administration measured upto 24 hrs by LC-MS/MS analysis; format: ADME, organism-based; conditions: read-out: K(p,uu,brain)
[26] = AUC (0 to last) in C57BL6 mouse brain at 0.5 mg/kg, iv single administration measured upto 24 hrs by LC-MS/MS analysis; format: ADME, organism-based; set-up: time < 24 hrs, dose 0.5 mg/kg, route iv
[27] = Half life in C57BL6 mouse brain at 0.5 mg/kg, iv single administration measured upto 24 hrs by LC-MS/MS analysis; format: ADME, organism-based
[28] = AUC in C57BL6 mouse brain assessed as free brain drug at 0.5 mg/kg, iv single administration measured upto 24 hrs by LC-MS/MS analysis; format: ADME, organism-based; set-up: dose 0.5 mg/kg, time < 24 hrs, route iv; conditions: in vivo
[29] = AUC in C57BL6 mouse brain at 0.5 mg/kg, iv single administration measured upto 24 hrs by LC-MS/MS analysis; format: ADME, organism-based; set-up: dose 0.5 mg/kg, time < 24 hrs, route iv
[30] = Ratio of total drug brain AUC to total plasma AUC in C57BL6 mouse brain at 0.5 mg/kg, iv single administration measured upto 24 hrs by LC-MS/MS analysis; format: ADME, organism-based
[31] = target: Tyrosine-protein kinase Lck (Homo sapiens) (UniProt P06239); assay: Inhibition of LCK (unknown origin) at 1 uM by ADP-Glo kinase assay relative to control
Tyrosine-protein kinase Lck (Homo sapiens), sequence (P06239 2-509 limits assumed): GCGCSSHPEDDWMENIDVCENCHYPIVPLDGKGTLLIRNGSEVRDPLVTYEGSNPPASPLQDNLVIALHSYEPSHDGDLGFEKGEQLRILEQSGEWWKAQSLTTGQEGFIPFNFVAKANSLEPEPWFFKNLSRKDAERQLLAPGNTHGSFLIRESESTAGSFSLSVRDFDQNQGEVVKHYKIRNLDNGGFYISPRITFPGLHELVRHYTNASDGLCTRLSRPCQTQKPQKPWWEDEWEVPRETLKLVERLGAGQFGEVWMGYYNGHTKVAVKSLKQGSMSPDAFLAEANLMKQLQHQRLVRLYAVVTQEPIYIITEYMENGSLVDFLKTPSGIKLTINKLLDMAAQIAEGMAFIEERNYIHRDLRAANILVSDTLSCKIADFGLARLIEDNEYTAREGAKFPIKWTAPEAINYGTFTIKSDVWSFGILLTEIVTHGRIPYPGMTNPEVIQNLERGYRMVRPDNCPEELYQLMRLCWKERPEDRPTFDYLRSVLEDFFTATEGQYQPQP

[32] = target: Interleukin-1 receptor-associated kinase 1 (Homo sapiens) (UniProt P51617); assay: Inhibition of IRAK1 (unknown origin) at 1 uM by ADP-Glo kinase assay relative to control
Interleukin-1 receptor-associated kinase 1 (Homo sapiens), sequence (P51617 whole entry, looked up): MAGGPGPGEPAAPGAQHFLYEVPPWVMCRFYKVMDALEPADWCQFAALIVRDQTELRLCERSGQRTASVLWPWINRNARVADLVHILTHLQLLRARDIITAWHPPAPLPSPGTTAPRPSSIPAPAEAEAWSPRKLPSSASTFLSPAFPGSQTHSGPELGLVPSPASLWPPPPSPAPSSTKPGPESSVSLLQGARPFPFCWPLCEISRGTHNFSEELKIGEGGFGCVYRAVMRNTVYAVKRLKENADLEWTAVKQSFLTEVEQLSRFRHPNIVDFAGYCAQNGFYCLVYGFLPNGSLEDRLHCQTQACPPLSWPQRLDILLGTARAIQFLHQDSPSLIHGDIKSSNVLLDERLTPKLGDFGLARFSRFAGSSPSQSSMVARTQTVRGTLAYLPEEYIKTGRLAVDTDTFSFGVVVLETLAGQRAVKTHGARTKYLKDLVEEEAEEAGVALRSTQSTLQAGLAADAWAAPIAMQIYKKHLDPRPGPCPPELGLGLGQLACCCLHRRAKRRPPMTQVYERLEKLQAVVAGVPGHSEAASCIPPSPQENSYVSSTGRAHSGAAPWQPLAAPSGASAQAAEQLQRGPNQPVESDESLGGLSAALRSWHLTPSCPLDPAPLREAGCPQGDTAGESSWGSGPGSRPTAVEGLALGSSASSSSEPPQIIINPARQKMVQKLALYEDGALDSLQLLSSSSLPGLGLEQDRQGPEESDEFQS

[33] = In vivo stability in iv dosed Hsd:ICR (CD-1) mouse brain assessed as stability measured after 5 to 90 mins by radio-HPLC analysis; format: ADME, organism-based; conditions: time 5-90 min

remaining at 5 min [1] [%]	remaining at 5 min [4] [%]	Stability [5]	remaining at 0.75 h [6] [%]	Drug uptake [8]	Drug uptake [9] [% ID/g]	Drug uptake [10] [% ID/g]	remaining at […] [11] [%]	Drug uptake [12]	fraction unbound at 4 h [13]	AUC at 24 h [14] [ng·h/mL]	half-life [15] [min]	AUC(0-t) at 24 h [16] [ng·h/mL]	C0 at 24 h [17] [ng/mL]	Kp at 24 h [18]	AUC [19] [ng·h/mL]	remaining at 0.5 h [20] [%]	SMILES	other results
93	72	Unstable	13	Active	3.1	0.3	8.5	Active									O=C(Nc1cn2cc(-c3ccccc3CC[18F])ccc2n1)[C@@H]1C[C@@H]1F	Drug uptake [2]: 1.6 % ID/g; Drug uptake [3]: Active; Drug uptake [7]: 2.7 % ID/g
									0.0692	112	30	536	536	0.21	4	< 30	O=C(Nc1cn2cc(-c3cccc(F)c3OCCF)ccc2n1)[C@@H]1C[C@@H]1F	
88	64	Unstable	18	Active	1.1	0.2	33	Active									O=C(Nc1cn2cc(-c3cccc(F)c3OCC[18F])ccc2n1)[C@@H]1C[C@@H]1F	
									0.0192							< 30	Cc1cc(F)ncc1-c1ccc2nc(NC(=O)[C@@H]3C[C@@H]3F)sc2c1	inhibition [21]: > 80%; inhibition [22]: > 80%; inhibition [23]: > 80%; C0 at 24 h [24]: 1580 ng/mL; Kp uu at 24 h [25]: 0.15; AUC(0-t) at 24 h [26]: 3380 ng·h/mL; half-life [27]: 540 min; AUC [28]: 10 ng·h/mL; AUC at 24 h [29]: 1670 ng·h/mL; Kp at 24 h [30]: 0.49; inhibition [31]: > 80%; inhibition [32]: > 80%
									0.0734	182	12	597	597	0.31	5	< 30	O=C(Nc1cn2cc(-c3ccccc3CCF)ccc2n1)[C@@H]1C[C@@H]1F	
				Active	4.2	1.2		Active									Cc1cc([18F])ncc1-c1ccc2nc(NC(=O)[C@@H]3C[C@@H]3F)sc2c1	Stability ([4]; in vivo, iv, 5 min): Stable; remaining at […] ([5]; Hsd:ICR (CD-1), plasma, read-out: Stability): 91%; Stability ([6]; in vivo, iv, 0.75 h): Stable; Stability [33]: 99.42%
